# Data published in US20120238520A1, “Novel Medical Use” (priority 2009, published 2012).
# Structures can show the parent of a compound that is named as a salt.
# How the values were obtained:
# Format in all cases: in vivo, rat
# LPS-instilled rats = test: LPS (endotoxin, biochemical injury) model of sepsis-induced acute lung injury in anesthetized, ventilated rats; details: rats 16 h after intratracheal LPS 5 mg/kg body wt, vs LPS alone
# Excerpt: The preparation of anesthetized, ventilated rats was used to carry out the below described examples. Techniques of the below described examples have been published (Frank J A, Gutierrez J A, Jones K D, et al.: Low tidal volume reduces epithelial and endothelial injury in acid-injured rat lungs. Am. J. Respir. Crit. Care Med. 165:242-249, 2002; Folkesson H G, Nitenberg G, Oliver B L, et al.: Upregulation of alveolar epithelial fluid transport after subacute lung injury in rats from bleomycin. Am. J. Physiol. 275:L478-490, 1998; Folkesson H G, Norlin A, Wang Y, et al., Dexamethasone and thyroid hormone pretreatment upregulate alveolar epithelial fluid clearance in adult rats. J. Appl. Physiol. 88: 416-424, 2000; and Norlin A, Lu L N, Guggino S E, et al., Contribution of amiloride-insensitive pathways to alveolar fluid clearance in adult rats. J. Appl. Physiol. 90: 1489-1496, 2001). […]
# To evaluate the effect of endotoxin (biochemical injury; a model of sepsis-induced acute lung injury), E. coli LPS at the concentration of 5 mg/kg body wt was given intratracheally (FIG. 1, top panel illustrates the time scheme used for LPS treatments). […] Blood was sampled for fluorescence and arterial blood gas measurements every 30 min throughout the experiment. […] Alveolar fluid clearance, extravascular lung water, and endothelial-epithelial barrier leak were determined.
# HCl-instilled rats = test: HCl (acid aspiration, chemical injury) model of acute lung injury in anesthetized, ventilated rats; details: rats 2 h after intratracheal HCl pH 1.5, vs HCl alone
# Excerpt: (§1) The preparation of anesthetized, ventilated rats was used to carry out the below described examples. Techniques of the below described examples have been published (Frank J A, Gutierrez J A, Jones K D, et al.: Low tidal volume reduces epithelial and endothelial injury in acid-injured rat lungs. Am. J. Respir. Crit. Care Med. 165:242-249, 2002; Folkesson H G, Nitenberg G, Oliver B L, et al.: Upregulation of alveolar epithelial fluid transport after subacute lung injury in rats from bleomycin. Am. J. Physiol. 275:L478-490, 1998; Folkesson H G, Norlin A, Wang Y, et al., Dexamethasone and thyroid hormone pretreatment upregulate alveolar epithelial fluid clearance in adult rats. J. Appl. Physiol. 88: 416-424, 2000; and Norlin A, Lu L N, Guggino S E, et al., Contribution of amiloride-insensitive pathways to alveolar fluid clearance in adult rats. J. Appl. Physiol. 90: 1489-1496, 2001).
# The methods used are published in the above given references. […]
# To evaluate the effect of HCl (chemical injury; a model of aspiration-induced acute lung injury), HCl at pH 1.5 was used (FIG. 1, bottom panel illustrates the time scheme used for HCl treatments). […] Blood was sampled for fluorescence and arterial blood gas measurements every 30 min throughout the experiment. […]
# [1] = test system: live E. coli-instilled rats; test: Live E. coli DH5α (biological injury) model of sepsis-induced acute lung injury in anesthetized, ventilated rats; details: rats 3 h after intratracheal live E. coli DH5α, vs E. coli alone
# Experimental: The preparation of anesthetized, ventilated rats was used to carry out the below described examples. […]
# To evaluate the effect of live E. coli (biological injury; a model of sepsis-induced acute lung injury), E. coli (serotype DH5α at the concentration of 10^8 cfu/ml was given intratracheally (FIG. 2). Rats were surgically prepared (anesthetized, tracheotomized, outfitted with a carotid artery catheter, and connected to a ventilator). The rats were ventilated for a 30 min baseline of stable blood gases. An instillation catheter was passed to rest just above the bronchial carina and 1 ml/kg body wt of the solution containing 10^8 cfu/ml E. coli DH5α was rapidly instilled into the lungs. The vascular tracer (FITC-labeled albumin) was given after 15 min stabilization time and the 5% albumin solution with and without (2R,3R,4S,5R)-2-(6-amino-2-{[(1S)-2-hydroxy-1-(phenylmethyl)ethyl]amino}-9H-purin-9-yl)-5-(2-ethyl-2H-tetrazol-5-yl)tetrahydro-3,4-furandiol maleate was instilled 2 h later into the distal airspaces of the lung. Blood was sampled for fluorescence and arterial blood gas measurements every 30 min throughout the experiment. […] Alveolar fluid clearance, extravascular lung water, and endothelial-epithelial barrier leak were determined.
# rats = test: Test solution instilled into airspaces of anesthetized, ventilated rats without injury-inducing agent; details: compound by itself, 10^−4 M in 5% albumin instilled into airspaces, any experimental group
# Excerpt: as §1
# The methods used are published in the above given references. A test solution of 5% albumin with and without […] (2R,3R,4S,5R)-2-(6-amino-2-{[(1S)-2-hydroxy-1-(phenylmethyl)ethyl]amino}-9H-purin-9-yl)-5-(2-ethyl-2H-tetrazol-5-yl)tetrahydro-3,4-furandiol maleate dissolved in 0.9% NaCl was used and instilled into the airspaces of rats to measure alveolar fluid clearance with and without the injury-inducing agent (HCl, LPS, or E. coil, see below for details). […]
smiles,measurement,setting,value
"CCn1nnc([C@H]2O[C@@H](n3cnc4c(N)nc(N[C@H](CO)Cc5ccccc5)nc43)[C@H](O)[C@@H]2O)n1 [(2R,3R,4S,5R)-2-(6-amino-2-{[(1S)-2-hydroxy-1-(phenylmethyl)ethyl]amino}-9H-purin-9-yl)-5-(2-ethyl-2H-tetrazol-5-yl)tetrahydro-3,4-furandiol maleate]",EVLW (extravascular lung water),"LPS-instilled rats; 10^−4 M compound in 5% albumin instilled into airspaces, FIG. 3 center",a reduction in EVLW was observed
same,ELW (excess lung water) reduced by,"LPS-instilled rats; 10^−4 M compound instilled, FIG. 4 center",~40%
same,EVLW (extravascular lung water),"HCl-instilled rats; 10^−4 M compound in 5% albumin instilled into airspaces, FIG. 3 left","a reduction in EVLW was observed, albeit EVLW remained elevated"
same,ELW (excess lung water) reduced by,"HCl-instilled rats; 10^−4 M compound instilled, ELW remained elevated compared to control, FIG. 4 left",~20%
same,EVLW (extravascular lung water),"[1]; 10^−4 M compound in 5% albumin instilled into airspaces, FIG. 3 right",a reduction in EVLW was observed
same,ELW (excess lung water) reduced by,"[1]; 10^−4 M compound instilled, FIG. 4 right",~40%
same,edema formation measured as increased EVLW (extravascular lung water),rats,believed not to result in edema formation
